# Results taken from US11873298B2, “Compounds and uses thereof” (JANSSEN PHARMACEUTICA NV, priority 2017, dated 2024).
# What was measured:
# SCD1 = molecular target: T1, SCD1 (Homo sapiens, UniProt O00767); assay: Growth inhibition of humanized yeast strain expressing SCD1 as sole desaturase; format: cell-based; details: humanized yeast strain, 40 h
# T1 construct: host or cells: S. cerevisiae ole1Δ strain (W303 pdr1Δ pdr3Δ background), plasmid pRS316 with TDH3 promoter and CYC1 terminator
# T1 sequence (O00767 1-359): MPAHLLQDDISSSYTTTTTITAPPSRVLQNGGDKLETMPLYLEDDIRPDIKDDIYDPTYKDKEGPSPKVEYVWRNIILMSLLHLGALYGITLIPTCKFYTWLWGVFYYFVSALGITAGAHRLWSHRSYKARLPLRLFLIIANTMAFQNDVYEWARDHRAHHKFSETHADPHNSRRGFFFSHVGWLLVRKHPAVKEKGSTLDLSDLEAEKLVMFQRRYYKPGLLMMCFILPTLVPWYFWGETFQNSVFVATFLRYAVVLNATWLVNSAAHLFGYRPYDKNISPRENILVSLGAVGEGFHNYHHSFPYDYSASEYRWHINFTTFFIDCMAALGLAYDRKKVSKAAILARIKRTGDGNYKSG
# In short: (§1)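 Measured by optical density at 600 nm, growth of desaturase-dependent yeast (OLE1 deleted; human SCD1, human SCD5 or yeast Ole1 supplied from plasmid) was scored after 24 h (Ole1) or 40 h (SCD1, SCD5) at 30° C. in galactose media lacking uracil with DMSO-delivered compound.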
# SCD5 = molecular target: T2, SCD5 (Homo sapiens, UniProt Q86SK9); assay: Growth inhibition of humanized yeast strain expressing SCD5 as sole desaturase; format: cell-based; details: humanized yeast strain, 40 h
# T2 construct: host or cells: S. cerevisiae ole1Δ strain (W303 pdr1Δ pdr3Δ background), plasmid pRS316 with TDH3 promoter and CYC1 terminator
# T2 sequence (Q86SK9 1-330): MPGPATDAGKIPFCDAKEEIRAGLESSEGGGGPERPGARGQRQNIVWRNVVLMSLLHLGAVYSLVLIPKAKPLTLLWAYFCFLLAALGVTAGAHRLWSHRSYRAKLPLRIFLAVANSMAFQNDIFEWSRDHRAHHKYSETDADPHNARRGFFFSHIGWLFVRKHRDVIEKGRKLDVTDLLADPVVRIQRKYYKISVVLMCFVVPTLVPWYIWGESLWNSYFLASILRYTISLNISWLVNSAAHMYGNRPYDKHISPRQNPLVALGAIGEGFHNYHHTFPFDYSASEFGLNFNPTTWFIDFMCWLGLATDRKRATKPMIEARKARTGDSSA
# In short: as §1
SMILES,IC50 (SCD1) [µM],IC50 (SCD5) [µM]
C[C@H](NC(=O)[C@H]1[C@@H]2CN(C(=O)OC(C)(C)C)C[C@@H]21)c1ccccc1 [Compound 769],> 45,> 45
CC(C)(C)OC(=O)N1C[C@@H]2[C@H](C1)[C@H]2C(=O)NCc1ccc(C#N)cc1 [Compound 770],> 45,> 45
CC(C)(C)OC(=O)N1C[C@@H]2[C@H](C1)[C@H]2C(=O)NCc1ccccc1 [Compound 771],> 45,> 45
CC(C)(C)OC(=O)N1C[C@@H]2[C@H](C1)[C@H]2C(=O)NCc1cccc(C#N)c1 [Compound 772],> 45,> 45
CC(C)(C)OC(=O)N1C[C@@H]2[C@H](C1)[C@H]2C(=O)NCc1ccc(Cl)cc1 [Compound 773],> 45,21.5
CC(C)(C)OC(=O)N1C[C@@H]2[C@H](C1)[C@H]2NC(=O)OCc1ccccc1 [Compound 774],> 45,> 45
CC(C)(C)CC(=O)N1CCC(c2nc(-c3ccc4cnn(C5CCOC5)c4c3)no2)CC1 (stereo not drawn) [Compound 775],> 45,0.022
COC(=O)N1CCC(c2nc(-c3ccc4cnn(C5CCOC5)c4c3)no2)CC1 (stereo not drawn) [Compound 776],> 45,0.025
CC1(OC(=O)N2CCC(c3nc(-c4ccc5cnn(C6CCOC6)c5c4)no3)CC2)CC1 (stereo not drawn) [Compound 777],4.16,0.01
CC(C)(C)OC(=O)N1CCN(c2noc(-c3cccc(C4CCOC4)c3)n2)CC1 (stereo not drawn) [Compound 778],> 45,0.012
CC(C)n1ncc2ccc(-c3noc(C4CCN(C(=O)C5(O)CC5)CC4)n3)cc21 [Compound 779],> 45,15.3
CC(C)(C)OC(=O)N1CCC(c2nsc(-c3ccc4cnn(C5COC5)c4c3)n2)CC1 [Compound 780],> 45,0.027
CC(C)n1nc(CO)c2ccc(-c3noc(C4CCN(C(=O)OC(C)(C)C)CC4)n3)cc21 [Compound 781],> 45,4.8
CC(C)(C)CC(=O)N1CCC(c2nc(-c3cccc(C4CCOC4)c3)no2)CC1 (stereo not drawn) [Compound 782],> 45,0.149
CC(C)(C)OC(=O)N1CCC(c2nc(N3CCC34COC4)no2)CC1 [Compound 783],> 45,> 45
CC(C)(C)OC(=O)N1CCN(c2nc(-c3ccc4cnn(C5CCOC5)c4c3)no2)CC1 (stereo not drawn) [Compound 784],0.95,0.01
CC(C)(C)OC(=O)N1CCN(c2noc(-c3cccc(C4CCCO4)c3)n2)CC1 (stereo not drawn) [Compound 785],9.21,0.041
CC(C)(C)OC(=O)N1CCC(c2nc(-c3ccc4cn(C5CC(=O)C5)nc4c3)no2)CC1 [Compound 786],> 45,> 45
CC(C)(C)OC(=O)N1CCC(c2nc(-c3ccc4cnn(C5CC(=O)C5)c4c3)no2)CC1 [Compound 787],31.5,0.108
COCC(C)(C)n1ncc2ccc(-c3noc(N4CCN(C(=O)OC(C)(C)C)CC4)n3)cc21 [Compound 788],> 45,6.22
CC(C)(C)OC(=O)N1CCC(c2noc(-c3cccc([C@H]4CCOC4)c3)n2)CC1 [Compound 789],> 45,0.01
CC(C)(C)OC(=O)N1CC=C(c2nsc(-c3ccc4cnn(C5COC5)c4c3)n2)CC1 [Compound 790],> 45,0.053
CC(C)(C)OC(=O)N1CCC(c2nc(-c3ccc4cnn([C@H]5CCOC5)c4c3)no2)CC1 [Compound 791],> 45,0.01
CC(C)(C)OC(=O)N1CCC(c2nc(-c3ccc4cnn([C@@H]5CCOC5)c4c3)no2)CC1 [Compound 792],8.83,0.01

SMILES,IC50 (SCD1) [µM],IC50 (SCD5) [µM]
CC(C)(C)OC(=O)N1CCC(c2nc(-c3ccn4cncc4c3)no2)CC1 [Compound 793],> 45,> 45
CC(C)(C)OC(=O)N1C[C@@H]2[C@H](C1)[C@H]2C(=O)NCc1ccc2[nH]ncc2c1 [Compound 794],> 45,> 45
CC(C)(C)OC(=O)N1CCC(c2noc(-c3cccc([C@@H]4CCOC4)c3)n2)CC1 [Compound 795],> 45,0.01
CC(C)(C)OC(=O)N1CCC(c2nc(-c3cccc(C(=O)C4COC4)c3)no2)CC1 [Compound 796],> 45,1.59
COC1(C(=O)N2CCC(c3nc(-c4ccc5cnn(C(C)C)c5c4)no3)CC2)CC1 [Compound 797],> 45,0.133
CC(C)n1ncc2ccc(-c3nc(N4CCNCC4)no3)cc21 [Compound 798],> 45,> 45
COC1(C(=O)N2CCC(c3noc(-c4ccc5cnn(C(C)C)c5c4)n3)CC2)CC1 [Compound 799],> 45,0.01
CC1(CC(=O)N2CCC(c3nc(-c4ccc5cnn(C6COC6)c5c4)ns3)CC2)CC1 [Compound 801],> 45,0.363
COCC(C)(C)n1ncc2ccc(-c3noc(C4CCN(C(=O)CC(C)(C)C)CC4)n3)cc21 [Compound 802],> 45,14.2
COC(=O)N1CCN(c2nc(-c3ccc4cnn(C5CCOC5)c4c3)no2)CC1 (stereo not drawn) [Compound 803],12.9,0.679
CC(C)n1ncc2ccc(-c3noc(N4CCn5ccnc5C4)n3)cc21 [Compound 804],> 45,> 45
CC(C)n1ncc2ccc(-c3noc(N4CCn5c(Cl)cnc5C4)n3)cc21 [Compound 805],> 45,9.36
CC(C)(C)OC(=O)N1CCC(c2nc(N3CC4(COC4)C3)no2)CC1 [Compound 806],> 45,> 45
CC(C)(C)CC(=O)N1CCC(c2nc(-c3ccc4cnn(C5(C)COC5)c4c3)no2)CC1 [Compound 807],> 45,0.247
CC(C)(C)OC(=O)N1CCC(c2nc(-c3ccccc3)no2)CC1 [Compound 808],> 45,5.82
CC(C)Nc1cc(-c2nc(N3CCN(C(=O)OC(C)(C)C)CC3)no2)ccn1 [Compound 809],> 45,0.124
CC(C)(C)OC(=O)N1CCC(N2CCN(c3ccc4cnn(C5COC5)c4c3)C2=O)CC1 [Compound 810],> 45,2.5
CC(C)(C)OC(=O)N1CCC(c2nc(-c3ccc4cnc(C5COC5)n4c3)no2)CC1 [Compound 811],> 45,0.679
CC(C)(C)OC(=O)N1CCC(c2noc(-c3cccc(C4CCCO4)c3)n2)CC1 (stereo not drawn) [Compound 812],> 45,0.01
COC(=O)N1CCC(c2noc(-c3ccc4cnn(C5CCOC5)c4c3)n2)CC1 (stereo not drawn) [Compound 813],> 45,0.01
CC(C)(C)OC(=O)N1C[C@@H]2[C@H](C1)[C@H]2NC(=O)c1ccc2cnn(C3COC3)c2c1 [Compound 814],> 45,> 45
COC(=O)N1CCC(c2nc(-c3ccnc(NC(C)C)c3)no2)CC1 [Compound 815],> 45,> 45
CC1(OC(=O)N2CCC(c3nc(-c4ccc5cnn(C6(C)COC6)c5c4)no3)CC2)CC1 [Compound 816],> 45,7.19
CC(C)(C)OC(=O)N1CCC(c2noc(-c3ccc4cnn(C5CCOC5)c4c3)n2)CC1 (stereo not drawn) [Compound 817],4.13,0.01
